From patent publication US20250270165A1, “COMPOSITIONS FOR AND METHODS OF MODULATING RNA STABILITY” (Duke University, priority 2022, published 2025)

Tests used:
[1] = test system: MALAT1 triple helix; test: Differential scanning fluorimetry (DSF), triplex thermal stability; type: binding, human
Description: Differential Scanning Fluorimetry. Differential scanning fluorimetry experiments were performed as previously reported. (Donlic A, et al. (2020) Nucleic Acids Res. 48(14):7653-7664). All experiments were performed in white 96 well plates in a LightCycler® 96 (Roche). In a typical experiment, 4 μM of RNA was annealed in the same buffer used for indicator displacement assays (20 mM HEPES-KOH, 52.6 mM KCl, 0.1 mM MgCl2, pH=7.4) by heating at 95° C. for 3 minutes, snap-cooling on ice for 10 minutes, and leaving the solution at room temperature for 1 hr. Then, 42 μL of this solution was aliquoted to wells and 5 μM of ligand was added (2.5 μL of water, 2.0 μL of DMSO, 0.5 μL of 500 μM small molecule stock). The mixture was left to incubate at room temperature for 5 minutes, after which 3 μL of a 20 µM Quant-iT™ RiboGreen™ (ThermoFisher Scientific) dye stock solution in appropriate buffer was added to each well. The 96 well plate was then sealed with an optically clear foil and centrifuged for 1 minute at 4000 rpm prior to being placed in the instrument. The light cycler program was created by selecting the melting curve method; fluorescence intensity was monitored using the SYBR Green I/HRM dye filter combination (465-510 nm) from 37-98° C. at a ramp rate of 0.01° C./second with 150 acquisitions per ° C. Melting profiles were obtained by Tm analysis in the LightCycler® 96 software (SW 1.1).

[2] = test system: MALAT1 triple helix; test: RNase A enzymatic degradation assay; type: biochemical, human; details: 5-minute time point, relative to DMSO control
Description: RNase A Enzymatic Degradation Assay.
The procedure was adapted from a published protocol for exonucleolytic enzymatic degradation assay. (Donlic A, et al. (2020) Nucleic Acids Res. 48(14):7653-7664). The MALAT1 destabilizing small molecules published by Le Grice (Abulwerdi F A, et al. (2019) ACS Chem Biol. 14(2):223-235) and co-workers SM5 and SM16 were purchased from ChemBridge. For a typical 70 μL reaction, […] of MALAT1 triple helix RNA was annealed in the same buffer used for IDA and DSF experiments (20 mM HEPES-KOH, 52 mM KCl, 0.1 mM MgCl2, pH=7.4) by heating at 95° C. for 3 minutes, snap-cooling on ice for 10 minutes, and leaving the solution at room temperature for 1 hr.
RNase A enzyme (ThermoFisher) was diluted to 1.46 nM and incubated with 1 M NaCl for 30-35 minutes to achieve ssRNA selectivity as reported. (Struhl K, et al. (1989) Current Protocols in Molecular Biology. 8(1):3.13.1-3.13.3). Next, the RNA was mixed with […] of a CC-rich DNA duplex, 0.2 mM of small molecule/DMSO and incubated at room temperature for 20 minutes. Following the incubation, […] of RNase A was added, and the reaction was incubated at 37° C. for 1 hour in a thermal cycler with a heated lid (Eppendorf). 4 μL timepoint aliquots were taken at 0, 5, 10, 30, and 60 minutes, 4 μL of 2×RNA loading dye was added to each aliquot (ThermoFischer Scientific), and samples were stored at −80° C. prior to gel analysis. Reactions were analyzed on pre-cast 15% PAGE-Urea gels (Invitrogen) in 1×TBE buffer. Aliquots were thawed from −80° C. storage and heated to 95° C. for 15 minutes prior to gel loading and […] were loaded in each well. Gels were run for 45 minutes at 180 V, stained with Diamond™ Nucleic Acid dye (Promega), and visualized on an iBright 500 (ThermoFisher). DMSO controls were ran with every set of 4 small molecules to ensure consistency of enzyme activity and RNA integrity. Gel band intensity of the MALAT1 triple helix and DNA loading control were quantified using ImageJ software. (Rueden C T, et al. (2017) BMC Bioinformatics. 18(1):529).
To quantify time-dependent endonucleolytic degradation for each sample, the intensity was normalized using Equation (3), and fold-difference was calculated as listed in Equation (4) as previously reported. (Donlic A, et al. (2020) Nucleic Acids Res. 48(14):7653-7664).
where y is fold-difference of the exonucleolytic degradation for the specific sample, with normalized areas for its specific time point x and time point 0 calculated as described in Equation (3). Percent RNA degraded was calculated for every time point using Equation (5).
% RNA degraded=(Normalized area (t0)−Normalized area (tx))*100 (Equation 5)
Experimental results shown in FIG. 6C are plotted as three independent replicates and standard deviation between replicates as error bars. Relative fold change between treated condition and DMSO was calculated from Equation (6).

[3] = test system: LNCaP cells; test: MTT assay in LNCaP cells; type: cell-based, human
Excerpt: The MTT reagent (3-(4,5-dimethylthiazol-2-yl)-2,5-diphenyl-2H-tetrazolium bromide) is a mono-tetrazolium salt that consists of a positively charged quaternary tetrazole ring core containing four nitrogen atoms surrounded by three aromatic rings including two phenyl moieties and one thiazolyl ring. Reduction of MTT results in disruption of the core tetrazole ring and the formation of a violet-blue water-insoluble molecule called formazan. The MTT reagent can pass through the cell membrane as well as the mitochondrial inner membrane of viable cells presumably due to its positive charge as well as its lipophilic structure and is reduced to formazan by metabolically active cells. The chromogenic nature of this redox chemical reaction provides a colorimetric-based measurement of intracellular formazan production based on which the MTT assay was developed. Consequently, the assay has extensive utility as a cell metabolic activity assay.
In the first set of […] experiments, four (4) members of the small molecule library were examined in a MTT assay. […] The IC50 values and trends were similar to the apparent small molecule affinities for MALAT-1, supporting a MALAT-1 related mechanism for the toxicity. […] Ongoing cytotoxicity studies using other DMZ small molecule analogs (as well as DMZ-5, DMZ-P13, and DMZ-P17) continue to illuminate mechanism of action regarding toxicity to cancer cells.

N=C(N)c1ccc(/N=N/Nc2ccc(C(=N)N)cc2)cc1 [DMZ-P0, diminazene, reference compound]
effect on MALAT1 triplex thermal stability (DSF), in words [1]: increases in thermal stability | stabilizer or destabilizer of MALAT1 triplex (RNase A degradation) [2]: destabilizers | IC50 relative to other tested library members, in words [3]: much higher IC50
